# Several values for one entry are separate records, joined by “and”; a condition that tells them apart may be missing. Equal values may be shown once.
# Tests used:
# HepG2 cells = assay: Metabolic labeling with tagged-fucose, flow cytometry; format: cell-based, human
# Method: Perturbations in glycoprotein metabolism were assayed by growing HepG2 cells without fucosidase inhibitors, or with compound II, III, or IV (see Example 2) for 24 hours, and then adding (3S,4R,5R,6S)-6-ethynyltetrahydro-2H-pyran-2,3,4,5-tetrayl tetra acetate, a per-acetylated analog of fucose containing an alkyne moiety in place of the 5′-methyl group (Click-iT™ Fucose Alkyne, Molecular Probes, Eugene, Oreg.) for an additional 48 hours. Cells were fixed, permeabilized, washed, and stained with Alexa Fluor 488 Azide to orthogonally label glycoproteins incorporating the fucose analog. Cells were then analyzed for fluorescence using a Guava 6HT-2L flow cytometer (ThermoFisher).
# [1] = Biodistribution in mouse liver and colon; format: in vivo; conditions: for Conc. of cmpd II in colon / Mean conc. of cmpd II in colon: mouse colon; for Conc. of cmpd II in colon / Conc. of cmpd II in liver: individual animal; for Conc. of cmpd II in liver / Mean conc. of cmpd II in liver: mouse liver
# Method: To assess the biodistribution of compound II (see Example 2) in mouse liver and colon, compound II was administered intravenously at a dosage of 1 mg/kg.
# [2] = test system: human hepatocarcinoma cell line HepG2; assay: Orthotopic model of human hepatocellular carcinoma; format: in vivo, nude mice
# Method: To assess the compounds in vivo, an orthotopic model of human hepatocellular carcinoma was used. The orthotopic tumor model was generated by implanting human hepatocarcinoma cell line HepG2 into nude mice and allowing the tumor cells to grow in vivo.
# The efficacy study was carried out using 10 mice per group and two dosage regimens. Compound II (see Example 2) was administered by oral gavage (po) at a dosage of 175 mg/kg once daily for 3 weeks (QDx21) or at a dosage of 87.5 mg/kg twice daily for 3 weeks (BIDx21). Vehicle (100 μL) was administered to control animals.
# HRPTEpiC = assay: Multiplexed cytotoxicity assay; format: cell-based; conditions: normal renal, 72 hour
# Method: (§1) To assess the cytotoxicity of compound II (see Example 2) in cancer and normal cells, the cells were grown in RPMI1640, 10% FBS, 2 mM L-alanyl-L-Glutamine, 1 mM Na Pyruvate or a special medium in a humidified atmosphere of 5% CO2 at 37° C. Cells were seeded into 384-well plates and incubated in a humidified atmosphere of 5% CO2 at 37° C. Compound II was added 24 hours post cell seeding. At the same time, a time zero untreated cell plate was generated.
# (§2) After a 72 hour incubation period, cells were fixed and stained with fluorescently labeled antibodies and nuclear dye to allow visualization of nuclei, apoptotic cells and mitotic cells. Apoptotic cells were detected using an anti-active caspase-3 antibody. Mitotic cells were detected using an anti phospho-histone-3 antibody.
# (§3) Compound II was serially diluted 3.16-fold and assayed over 9 concentrations. Automated fluorescence microscopy was carried out using a GE Healthcare IN Cell Analyzer 1000, and images were collected with a 4× objective.
# (§4) Twelve bit tiff images were acquired using the InCell Analyzer 1000 3.2 and analyzed with Developer Toolbox 1.6 software. EC50 and IC50 values were calculated using nonlinear regression to fit data to a sigmoidal 4 point, 4 parameter One-Site dose response model, where: y (fit)=A+[(B−A)/(1+((C/x)^D))]. Curve-fitting, EC50/IC50 calculations and report generation are performed using a custom data reduction engine MathIQ based software (AIM).
# (§5) The multiplexed cytotoxicity assay uses a cell image based analysis technique where cells are fixed and stained with fluorescently labeled antibodies and nuclear dye to visualize nuclei, and apoptotic and mitotic cells. Apoptotic cells are detected using an anti-active caspase-3 antibody. Mitotic cells are detected using an anti phospho-histone-3 antibody. Cell proliferation is measured by the signal intensity of the incorporated nuclear dye. The cell proliferation assay output is referred to as the relative cell count. To determine the cell proliferation end point, the cell proliferation data output is transformed to percent of control (POC) using the following formula: POC=relative cell count(compound wells)/relative cell count(vehicle wells)×100.
# (§6) Relative cell count IC50 is the test compound concentration at 50% of maximal possible response. A relative cell count EC50 is the test compound concentration at the curve inflection point or half the effective response (parameter C of the fitted curve solution). GI50 is the concentration needed to reduce the observed growth by half. This is the concentration that inhibits the growth midway between untreated cells and the number of cells seeded in the well (Time zero value).
# (§7) The activated caspase-3 marker labels cells from early to late stage apoptosis. The output is shown as a fold increase of apoptotic cells over vehicle background normalized to the relative cell count in each well. Concentrations of test compound that cause a 5-fold induction in the caspase-3 signal indicates significant apoptosis induction. Wells with concentrations higher than the relative cell count IC95 are eliminated from the caspase3 induction analysis.
# (§8) The phospho-histone-3 marker labels mitotic cells. The output is shown as a fold induction of mitotic cells over vehicle background normalized to the relative cell count in each well. When the fold induction of mitotic cell signal over background is ˜1, there is “no effect” on the cell cycle. Two or more fold increase in phospho-histone-3 signal over vehicle background indicates significant test compound induction of mitotic block.
# (§9) Two or more fold decrease in the phospho-histone-3 signal may indicate G1/S block only when cytotoxicity levels are below the measured relative cell count IC95. […]
# HPH = assay: Multiplexed cytotoxicity assay; format: cell-based; conditions: normal primary hepatocyte, 72 hour
# Method: as §1, §2, §3, §4, §5, §6, §7, §8, §9
# NHDF = assay: Multiplexed cytotoxicity assay; format: cell-based; conditions: normal skin, 72 hour
# Method: as §1, §2, §3, §4, §5, §6, §7, §8, §9
# U-87 MG = assay: Multiplexed cytotoxicity assay; format: cell-based; conditions: brain blastoma, 72 hour
# Method: as §1, §2, §3, §4, §5, §6, §7, §8, §9
# K562 = assay: Multiplexed cytotoxicity assay; format: cell-based; conditions: K562, blood leukemia, 72 hour
# Method: as §1, §2, §3, §4, §5, §6, §7, §8, §9
# [3] = 87.5 mg/kg po twice daily (BIDx21), Day 0
# [4] = 87.5 mg/kg po twice daily (BIDx21), Day 2
# [5] = 87.5 mg/kg po twice daily (BIDx21), Day 5
# [6] = 87.5 mg/kg po twice daily (BIDx21), Day 9
# [7] = 87.5 mg/kg po twice daily (BIDx21), Day 12
# [8] = 87.5 mg/kg po twice daily (BIDx21), Day 16
# [9] = 87.5 mg/kg po twice daily (BIDx21), Day 20
# [10] = 175 mg/kg po once daily (QDx21), Day 0
# [11] = 175 mg/kg po once daily (QDx21), Day 2
# [12] = 175 mg/kg po once daily (QDx21), Day 5
# [13] = 175 mg/kg po once daily (QDx21), Day 9
# [14] = 175 mg/kg po once daily (QDx21), Day 12
# [15] = 175 mg/kg po once daily (QDx21), Day 16
# [16] = 175 mg/kg po once daily (QDx21), Day 20
smiles,measurement,setting,value
C[C@@H]1N[C@H](CNC(=O)c2cccc3c2C(=O)c2ccccc2-3)[C@@H](O)[C@H](O)[C@@H]1O [Compound II],Mean Green Fluorescence (GRN-HLog),"HepG2 cells; HepG2, 24 hours compound then 48 hours fucose alkyne, Alexa Fluor 488 Azide",8433
same,Fold over vehicle,"HepG2 cells; mean green fluorescence, HepG2",2.98
same,Conc. of cmpd II in colon,"[1]; IV 1 mg/kg qdx1, 1 h",1770 ng/g and 1640 ng/g and 1930 ng/g
same,Mean conc. of cmpd II in colon,"[1]; IV 1 mg/kg qdx1, 1 h",1780 ng/g
same,Conc. of cmpd II in colon,"[1]; IV 1 mg/kg qdx1, 8 h",638 ng/g and 289 ng/g and 872 ng/g
same,Mean conc. of cmpd II in colon,"[1]; IV 1 mg/kg qdx1, 8 h",600 ng/g
same,Conc. of cmpd II in liver,"[1]; IV 1 mg/kg qdx1, 1 h",298 ng/g and 301 ng/g and 188 ng/g
same,Mean conc. of cmpd II in liver,"[1]; IV 1 mg/kg qdx1, 1 h",262 ng/g
same,Conc. of cmpd II in liver,"[1]; IV 1 mg/kg qdx1, 8 h",9.03 ng/g and 7.64 ng/g and 12.9 ng/g
same,Mean conc. of cmpd II in liver,"[1]; IV 1 mg/kg qdx1, 8 h",9.86 ng/g
same,Body Weight,[2]; [3],22.45 g
same,Tumor Volume,[2]; [3],212 mm^3
same,Body Weight,[2]; [4],22.05 g
same,Tumor Volume,[2]; [4],224 mm^3
same,Body Weight,[2]; [5],21.93 g
same,Tumor Volume,[2]; [5],227 mm^3
same,Body Weight,[2]; [6],21.58 g
same,Tumor Volume,[2]; [6],247 mm^3
same,Body Weight,[2]; [7],21.51 g
same,Tumor Volume,[2]; [7],270 mm^3
same,Body Weight,[2]; [8],20.39 g
same,Tumor Volume,[2]; [8],326 mm^3
same,Body Weight,[2]; [9],20.86 g
same,Tumor Volume,[2]; [9],320 mm^3
same,Body Weight,[2]; [10],22.93 g
same,Tumor Volume,[2]; [10],211 mm^3
same,Body Weight,[2]; [11],22.94 g
same,Tumor Volume,[2]; [11],238 mm^3
same,Body Weight,[2]; [12],22.28 g
same,Tumor Volume,[2]; [12],277 mm^3
same,Body Weight,[2]; [13],22.1 g
same,Tumor Volume,[2]; [13],320 mm^3
same,Body Weight,[2]; [14],22.26 g
same,Tumor Volume,[2]; [14],348 mm^3
same,Body Weight,[2]; [15],20.58 g
same,Tumor Volume,[2]; [15],364 mm^3
same,Body Weight,[2]; [16],19.98 g
same,Tumor Volume,[2]; [16],416 mm^3
same,G1/S arrest,HRPTEpiC,10 µM
same,Primary effect,HPH,no effect
same,G1/S arrest,NHDF,14 µM
same,G1/S arrest,U-87 MG,26 µM
same,G1/S arrest,K562,93 µM
